Data as given in US12435060B2, “Acylamino bridged heterocyclic compound, and composition and application thereof” (BEIJING SCITECH-MQ PHARMACEUTICALS LIMITED, priority 2019, dated 2025).
pIC50: −log10 of the molar value.

Tested on: HT29 cells
Assay: Inhibition of cell necrosis (CCK8 method), induced programmed necrosis of HT29 cells
Type: cell-based
Details: Homo sapiens, HT-29; rescue from necrosis induced by TNF-α 20 ng/mL, AT-406 1 μM, Z-VAD-FMK 20 μM; 16-20 hours; CCK-8, OD 450 nm
Method in brief: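 Rescue from programmed necrosis was scored by CCK-8 absorbance at 450 nm after 16-20 h of TNF-α (20 ng/mL), AT-406 (1 μM) and Z-VAD-FMK (20 μM) at 37 °C, 5% CO2. HT29 cells had received compound 30 min earlier across nine 4-fold dilutions (top 25000 nM final). IC50 came from % inhibition relative to uninduced and induced-only wells.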

Row | SMILES | pIC50
1 | O=C(Nc1cc(-c2cc(OCCC3CCOCC3)ccc2Cl)ccn1)c1nnc(CC2CCCC2)[nH]1 [Example 405, N-(4-(2-chloro-5-(2-(tetrahydro-2H-pyran-4-yl)ethoxy)phenyl)pyridin-2-yl)-5-(cyclopentylmethyl)-4H-1,2,4-triazole-3-carboxamide] | ≥ 7.00
2 | Cc1ccc(OCCCC(C)(C)O)cc1-c1ccnc(NC(=O)c2nnc(Cc3ccc(F)c(F)c3)[nH]2)c1 [Example 192, 5-(3,4-difluorobenzyl)-N-(4-(5-((4-hydroxy-4-methylpentyl)oxy)-2-methylphenyl)pyridin-2-yl)-4H-1,2,4-triazole-3-carboxamide] | ≥ 7.00
3 | CCC(O)(CC)CCCOc1ccc(C)c(-c2cc(NC(=O)c3nnc(CC4CCCCC4)[nH]3)ncc2F)c1 [Example 243, 5-(cyclohexylmethyl)-N-(4-(5-((4-ethyl-4-hydroxyhexyl)oxy)-2-methylphenyl)-5-fluoropyridin-2-yl)-4H-1,2,4-triazole-3-carboxamide] | ≥ 7.00
4 | CC(C)(O)CCCOc1ccc(C(F)(F)F)c(-c2cc(NC(=O)c3nnc(CC4CCCC4)[nH]3)ncn2)c1 [Example 452, 5-(cyclopentylmethyl)-N-(6-(5-((4-hydroxy-4-methylpentyl)oxy)-2-(trifluoromethyl)phenyl)pyrimidin-4-yl)-4H-1,2,4-triazole-3-carboxamide] | ≥ 7.00
5 | COCCOCCOc1ccc(C)c(-c2ccnc(NC(=O)c3nnc(Cc4ccccc4)[nH]3)c2)c1 [Example 85, 5-benzyl-N-(4-(5-(2-(2-methoxyethoxy)ethoxy)-2-methylphenyl)pyridin-2-yl)-4H-1,2,4-triazole-3-carboxamide] | ≥ 7.00
6 | CCOCCCOc1ccc(C)c(-c2ccnc(NC(=O)c3nnc(Cc4ccccc4)[nH]3)c2)c1 [Example 147, 5-benzyl-N-(4-(5-(3-ethoxypropoxy)-2-methylphenyl)pyridin-2-yl)-4H-1,2,4-triazole-3-carboxamide] | ≥ 7.00
7 | CC(C)OCCOc1ccc(Cl)c(-c2ccnc(NC(=O)c3nnc(Cc4ccccc4F)[nH]3)c2)c1 [Example 388, 5-(2-fluorobenzyl)-N-(4-(2-chloro-5-(2-isopropoxyethoxy)phenyl)pyridin-2-yl)-4H-1,2,4-triazole-3-carboxamide] | ≥ 7.00
8 | Cc1ccc(OCCCC(C)(C)O)cc1-c1ccnc(NC(=O)c2nnc(Cc3ccc(Cl)cc3)[nH]2)c1 [Example 189, 5-(4-chlorobenzyl)-N-(4-(5-((4-hydroxy-4-methylpentyl)oxy)-2-methylphenyl)pyridin-2-yl)-4H-1,2,4-triazole-3-carboxamide] | ≥ 7.00
9 | CC(C)(O)CCCCOc1ccc(C(F)(F)F)c(-c2ccnc(NC(=O)c3nnc(Cc4ccccc4)[nH]3)c2)c1 [Example 268, 5-benzyl-N-(4-(5-((5-hydroxyl-5-methylhexyl)oxy)-2-(trifluoromethyl)phenyl)pyridin-2-yl)-4H-1,2,4-triazole-3-carboxamide] | ≥ 7.00
10 | Cc1c(OCCCCO)cccc1-c1ccnc(NC(=O)c2nnc(Cc3ccccc3)[nH]2)c1 [Example 99, 5-benzyl-N-(4-(3-(4-hydroxybutoxy)-2-methylphenyl)pyridin-2-yl)-4H-1,2,4-triazole-3-carboxamide] | 6.00 to 7.00
11 | Cc1ccc(OCCCCC(C)(C)O)cc1-c1cc(NC(=O)c2nnc(CC3CCCCC3)[nH]2)ncc1Cl [Example 248, 5-(cyclohexylmethyl)-N-(5-chloro-4-(5-((5-hydroxyl-5-methylhexyl)oxy)-2-methylphenyl)pyridin-2-yl)-4H-1,2,4-triazole-3-carboxamide] | 6.00 to 7.00
12 | CC(C)OCCOc1ccc(C(F)(F)F)c(-c2ccnc(NC(=O)c3nnc(CC4CCCCC4)[nH]3)c2)c1 [Example 290, 5-(cyclohexylmethyl)-N-(4-(5-(2-isopropoxyethoxy)-2-(trifluoromethyl)phenyl)pyridin-2-yl)-4H-1,2,4-triazole-3-carboxamide] | ≥ 7.00
